Measurements published in patent publication US20100137239A1, “GEMCITABINE COMBINATION THERAPY” (GLOUCESTER PHARMACEUTICALS, priority 2006, published 2010).
“Also recorded” adds a separate entry of the source.

Legend:
c-Myc = experiment: Immunoblot of c-Myc in PANC-1 xenograft tumors after treatment; assay type: in vivo, human; settings: FK228 5 mg/kg Q4Dx3; gemcitabine 80 mg/kg Q3Dx4; tumors at study completion; actin-normalized, vs controls
Protocol: (§1) Abstract: To examine activity and mechanism of FK228, antitumor efficacy was tested in PANC-1 pancreatic adenocarcinoma model representing transformed Ras, either as a single agent or in combination with gemcitabine. Following PANC-1 study completion, tumor and sera were obtained from: • the vehicle control; • FK228 dosed at 5 mg/kg once every four days for three treatments (Q4Dx3); • Gemcitabine at 80 mg/kg (Q3Dx4); and • the drug combination. Expression of c-Myc, acetylated histones 3 and 4, and p21^waf1 was compared between control and FK228 groups by immunoblotting and was quantified following actin normalization. Serum levels of putative tumor products b-FGF and MMP-2 were quantified by human-specific ELISA. […]
(§2) Tissue Biomarkers: Tumor levels of acetylated histone-4, histone-4, c-Myc, p21waf and β-actin were quantified by immunoblotting as described. […] The chemiluminescence signal was captured by autoradiography, quantified by densitometry and expressed as a ratio of actin in each sample lane. For each biomarker, means and standard errors were calculated in each treatment group. […]
(§3) Expression of c-Myc, acetylated histones 3 and 4, and p21^waf1 was compared between control and FK228 groups by immunoblotting and was quantified following actin normalization. Serum levels of putative tumor products b-FGF and MMP-2 were quantified by human-specific ELISA. […]

[1] = tested on: NIH-3T3 cells transformed by H, K, N-Ras and the rat Her-2/NeuT; experiment: 4-day proliferation assay, transformed NIH-3T3 cell lines; assay type: cell-based, mouse; settings: 2 nM romidepsin
Protocol: (§4) A series of transformed NIH-3T3 cell likes were generated and a proliferation assay was performed in the presence of 2, 3, or 4 nM romidepsin. FIG. 23 illustrates the transformed morphology of the cells. FIG. 24 presents graphs of cell proliferation.

B-Raf 600E cells = experiment: 4-day proliferation assay, B-Raf 600E NIH-3T3 cells; assay type: cell-based, mouse; settings: 2, 3, or 4 nM romidepsin
Protocol: as §4

p21^waf = experiment: Immunoblot of p21^waf in PANC-1 xenograft tumors; assay type: in vivo, human; settings: FK228 5 mg/kg Q4Dx3; gemcitabine 80 mg/kg Q3Dx4; tumors at study completion; vs controls
Protocol: as §1, §2, §3

SMILES | inhibition of c-Myc expression (c-Myc) | proliferation of transformed vs untransformed cells [1] | potency on B-Raf 600E cells (B-Raf 600E cells) | p21^waf expression (p21^waf)
C/C=C1\NC(=O)[C@H]2CSSCC/C=C/[C@H](CC(=O)N[C@H](C(C)C)C(=O)N2)OC(=O)[C@H](C(C)C)NC1=O [FK228, romidepsin] | 50% | selectively inhibited | not potent | 
Nc1ccn([C@@H]2O[C@H](CO)[C@@H](O)C2(F)F)c(=O)n1 [Gemcitabine, gemcitabine] | 50% |  |  | downregulated; also recorded: down-regulated
